Converted amounts (≈) assume the structure as drawn. “And” between values parts separate entries of the source, which are not always exact repeats. Equal values may be shown once. Read-outs that look alike come from different tables or passages of the source.
Legend:
HSV-1 = test: Antiviral activity, HSV-1 (HFF); format: cell-based; settings: Human alphaherpesvirus 1
Huh7 cells = test: Mitochondria toxicity assay, lactic acid production, Huh7; settings: 4 days
MCMV = test: Antiviral activity, MCMV (MEF); format: cell-based
BVDV = format: cell-based, bovine viral diarrhea virus; settings: for EC4 log: MDBK
HepG2 cells [1] = test: Cellular RNA synthesis, [3H]-uridine incorporation; settings: read-out: CC50 RNA ([3H]Uridine); 50% reduction of uridine incorporation into cellular RNA
BVDV (strain NADL) = test: BVDV cell protection assay (CPA); format: cell-based; settings: Bovine viral diarrhea virus isolates and strains, MOI of BVDV 0.04
[2] = tested on: LLC-MK2, Rhesus monkey kidney cells; settings: Punta Toro A line
in vitro = settings: African green monkey
HCMV = test: Antiviral activity, HCMV (HFF); format: cell-based; settings: Human betaherpesvirus 5
[3] = Cytotoxicity (cell proliferation) assay, HepG2; settings: human, HepG2 cells
[4] = tested on: HepG2 human hepatoma cell line; test: Cytotoxicity (cell proliferation) assay, HepG2; settings: cells grown on collagen coated plates for 4 or 10 d
[5] = tested on: human cytidine/deoxycytidine deaminase enzymes; settings: 37° C.
[6] = tested on: KB, human nasopharyngeal carcinoma; test: Cytotoxicity, KB; format: cell-based
HepG2 cells [7] = test: Mitochondrial DNA content; format: cell-based, human
Procedure: To assess the potential of mCyd to produce mitochondrial toxicity, several in vitro studies were conducted using the human hepatoma cell lines HepG2 or Huh7.
The significance of this finding is unclear, particularly since mCyd is unlikely to attain a plasma concentration of 50 μM in the clinic. For comparison, lactic acid production increases by 100% over control cells in cells treated with 10 μM FIAU (Cui L, Yoon, et al. J. Clin. Invest. 1995; 95:555-563).

[8] = tested on: MDCK, canine kidney cells; test: Cytotoxicity, MDCK; format: cell-based
Sb-1 = test: organism not typed; format: cell-based, Sabin type 1 poliomyelitis virus
Adenovirus type 1 = test: Antiviral activity, Adenovirus type 1 (A549); format: cell-based; settings: Human mastadenovirus C
[9] = tested on: BVDV (strain I-N-dIns), noncytopathic; format: cell-based, bovine viral diarrhea virus
Rhinovirus type 2 = test: microbe, parasite or virus in culture; format: cell-based; settings: Enterovirus
HBV = format: cell-based
HepG2 cells [10] = test: Mitochondria toxicity assay, lactic acid production, HepG2; settings: for L-Lactate (% of Control): 4 days
Polio Virus Sb-1 = test: organism not typed; format: cell-based; settings: Vero
HSV-2 = test: Antiviral activity, HSV-2 (HFF); format: cell-based; settings: Human alphaherpesvirus 2
HepG2 cells [11] = test: Incorporation of drug into cellular RNA and DNA; settings: 10 μM [3H] drug, 30 hours
West Nile Virus = test: microbe, parasite or virus in culture; format: cell-based; settings: BHK
HepG2 cells [12] = test: Transmission electron microscopy of mitochondrial ultrastructure
HepG2 cells [13] = test: Cellular DNA synthesis, [3H]-thymidine incorporation; settings: read-out: CC50 DNA ([3H]Thymidine); 50% reduction of thymidine incorporation into cellular DNA
[14] = Stability in human plasma; settings: 37° C.
[15] = tested on: MA-104, Rhesus monkey kidney cells; test: Cytotoxicity, MA-104; settings: Parainfluenza type 3 line
Influenza A/H1N1 = test: Antiviral activity, Influenza A/H1N1 (MDCK); format: cell-based; settings: Influenza A virus
HIV = format: cell-based
[16] = tested on: HeLa, human cervical adenocarcinoma cells; test: Cytotoxicity, HeLa-Ohio; format: cell-based; settings: Rhinovirus type 14 line
[17] = tested on: A549, Human lung carcinoma cells; test: Cytotoxicity, A549; format: cell-based; settings: Adenovirus type 1 line
[18] = tested on: BVDV New York-1 (NY-1) strain; test: MDBK cells persistently infected with BVDV strain New York-1, virus titer; format: cell-based, bovine viral diarrhea virus; settings: 8 μM alone, after one passage
[19] = tested on: MT-4 human T-lymphocyte cells; settings: human
VEE = test: microbe, parasite or virus in culture; format: cell-based; settings: Venezuelan equine encephalitis virus, Vero
Influenza A/H3N2 = test: Antiviral activity, Influenza A/H3N2 (MDCK); format: cell-based; settings: Influenza A virus

CC1(O)C(O)C(CO)OC1n1ccc(N)nc1=O (stereo not drawn) [mCyd, 4-Amino-1-(3,4-dihydroxy-5-hydroxymethyl-3-methyl-tetrahydro-furan-2-yl)-1H-pyrimidine-2-one]
EC50 (HSV-1): > 100 µg/mL | L-Lactate (% of Control) (Huh7 cells; 10 μM): 98.0 ± 12.3 % of Control | L-Lactate (% of Control) (Huh7 cells; 50 μM): 97.1 ± 10.1 % of Control | EC50 (MCMV): > 0.8 µM | EC4 log (BVDV; BVDV I-N-dIns ncp (recombinant)): 7.14 μM | EC4 log (BVDV; BVDV I-NADL cp (recombinant)): 8.22 μM | suppression of de novo BVDV production (BVDV; subcytotoxic concentrations (circa 20 μM)): up to 6 logs | CC50 (HepG2 cells [1]): 186 ± 28.2 µM | EC50 (BVDV (strain NADL)): 0.5 µM | CC50 [2]: > 200 µM | CC50 (in vitro): > 100 µM | EC50 (HCMV): 9.9 to 15.6 µg/mL (≈ 38.5 to 60.6 µM) | CC50 [3]: 200 µM | CC50 [4]: > 200 µM | in vitro stability, deamination to mUrd [5]: remained essentially unchanged | CC50 ([6]; Rhinovirus type 2 line, read-out: CC50): > 200 µM | CC50 ([6]; Rhinovirus type 5 line): 20 to 30 µg/mL | mtDNA/nuclear DNA (% of Control) (HepG2 cells [7]; 10 μM, 6 day treatment): 117.3 ± 17.5 % of Control | mtDNA/nuclear DNA (% of Control) (HepG2 cells [7]; 10 μM, 14 day treatment): 99.7 ± 23.9 % of Control | mtDNA/nuclear DNA (% of Control) (HepG2 cells [7]; 50 μM, 6 day treatment): 158.2 ± 17.5 % of Control | mtDNA/nuclear DNA (% of Control) (HepG2 cells [7]; 50 μM, 14 day treatment): 83.0 ± 15.5 % of Control | CC50 ([8]; Influenza A/H1N1 line): > 200 µM | CC50 ([8]; Influenza A/H3N2 line): 45 to 65 µM | CC50 ([8]; Influenza B line): 55 to 140 µM | EC50 (Sb-1; read-out: EC50 Sb-1): 6 µM | EC50 (Sb-1; read-out: Sb-1): 11.5 µM | EC50 (Adenovirus type 1): > 200 µM | reduction of BVDV titer ([9]; 4 μM, one cell passage (3 days)): approximately 3 log10 | reduction of virus production ([9]; 8 μM): 6.2 log10 | virus production ([9]; 16 μM, within two cell passages, from more than 6 logs of virus per ml): undetectable levels | EC50 (Rhinovirus type 2): 2 to 10 µM | activity against HBV (HBV): no activity | L-Lactate (% of Control) (HepG2 cells [10]; 10 μM): 98.6 ± 7.3 % of Control | increase in lactic acid production (HepG2 cells [10]; 50 μM): 38% | L-Lactate (% of Control) (HepG2 cells [10]; 50 μM): 138.0 ± 8.9 % of Control | EC50 (Polio Virus Sb-1): 6 µM | EC50 (HSV-2): > 100 µg/mL | Incorporated drug amount, DNA (HepG2 cells [11]): 0.0013 pmole/μg DNA and 0.0013 ± 0.0008^a pmole/μg DNA | Incorporated drug amount, RNA (HepG2 cells [11]): 0.0014 pmole/μg RNA and 0.0014 ± 0.0008^a pmole/μg RNA | EC50 (West Nile Virus): 63 to 97 µM | Electron Microscopy, Lipid Droplet Form. (HepG2 cells [12]; 10 μM, 14 days): Negative | Electron Microscopy, Mito. Morphol. (HepG2 cells [12]; 10 μM, 14 days): Normal^d | cells in which 1 to 2 mitochondria out of an average of 25 appeared enlarged (HepG2 cells [12]; 14 days of exposure to 10 μM): 17% | CC50 (HepG2 cells [13]): 112 ± 34.5 µM | in vitro stability, deamination to mUrd [14]: remained essentially unchanged | CC50 [15]: > 200 µM | EC50 (Influenza A/H1N1): > 200 µM | activity against HIV (HIV): no activity | CC50 [16]: 20->100 μg/mL | CC50 [17]: > 200 µM | reduction of viral titers [18]: approximately 3.5 log10 | CC50 [19]: 34 µM | EC50 (VEE): 1.3 to 45 µM | EC50 (Influenza A/H3N2): > 20 µM
